The numbers were not newly measured in patent US10196337B2, “Processes for the preparation of hydroxylated cyclohexyl compounds” (priority 2016, dated 2019), which cites them from elsewhere.

The series relates to A2780 ovarian cancer cell line. To be noted: compounds isolated from bark extract of Pleiogynium timorense, literature ref. 1, read-out: IC50 against the A2780 ovarian cancer cell line.
Consider `CCCCCCCC/C=C\CCCCCCC[C@]1(O)C(=O)C=C[C@H](O)[C@H]1O` [compound 1, pleiogenone A], for which the IC50 (as a rule, the midpoint of a concentration-inhibition curve) is 800 nM.

On to pleiogenone B [compound 2], for which the half-inhibitory concentration (IC50) was 700 nM. Turning to pleiogenone C [compound 3], the half-maximal inhibitory concentration (IC50) was 800 nM.
